Results reported in patent publication US20230111910A1, “PD-1/PD-L1 INHIBITOR, PREPARATION METHOD THEREFOR, AND USE THEREOF” (SHANGHAI SYNERGY PHARMACEUTICAL SCIENCES CO., LTD., priority 2020, published 2023).
Structures can show the parent of a compound that is named as a salt. Where two headings read alike, the source gives them in different places.

Assays:
Format in all cases: in vivo
[1] = Pharmacokinetic experiment in rats, LC/MS/MS; settings: male, rat, whole blood, SD rats; for AUC: read-out: Area under the curve (AUC, ng/mL.h); for bioavailability: p.o. 10 mg/kg vs i.v. 2 mg/kg, read-out: Bioavailability (F%); for Cmax: read-out: Blood concentration (Cmax, ng/mL); for half-life: read-out: Half life (T1/2, h) (converted)
Protocol: Taking SD rats as an example, the drug concentrations in the plasma of rats at different times after i.g. and i.v. administration of compounds of Examples 1, 5, 6, 8, 12, 13, 15, 18, 19, 22, 25, 27 and 29, respectively, were determined by the liquid chromatography-tandem mass spectrometry (LS/MS/MS) method, and the relevant pharmacokinetic parameters were calculated to evaluate the pharmacokinetic properties of example compounds of the present invention in rats.
Healthy adult SD rats, SPF grade, male, purchased from Sippe-Bk Lab Animal Co., Ltd., Shanghai, license number SCXK (Shanghai) 2018-0006, animal certificate number: 20180006006321.
A certain amount of compound was weighed, dissolved in 5% dimethyl sulfoxide (DMSO), subjected to vortex and sonication, added with 0.5% sodium carboxymethyl cellulose (CMC-Na), and sonicated, to prepare a homogeneous solution.
Before administration and 5 min, 15 min, 0.5 h, 1 h, 2 h, 4 h, 6 h, 8 h and 24 h after administration, orbital blood was collected, 0.2 milliliters (mL) of blood being collected each time, and placed in an anticoagulant tube, mixed well, and stored in a −20° C. refrigerator for later use.
The content of the compound in rat whole blood was determined by liquid chromatography-tandem mass spectrometry (LS/MS/MS).
The pharmacokinetic parameters of the compounds after administration were calculated using the non-compartmental model of WinNonLin5.3 software.

[2] = Acute toxicity test in mice, single dose, 14 days observation; settings: both sexes, mouse, in vivo; ICR mice, single administration; read-out: median lethal dose (LD50)
Protocol: (§1) This experiment aims to test the toxic effects of the compounds in mice.
(§2) ICR mice, SPF grade, 6-8 weeks old, half male and half […], purchased from Sippe-Bk Lab Animal Co., Ltd., Shanghai, license number SCXK (Shanghai) 2018-0006, animal certificate number: 20180006010983.
(§3) ICR mice were administered different doses of compounds at a single time, and were continuously observed for 14 days. The animal death, poisoning reaction, body weight change, diet, appearance, behavior, etc. were recorded. At the end point, the animals were dissected, and the organs were taken for histopathological examination.

[3] = system: ICR mice; test: as above; settings: within 14 days from administration
Protocol: as §1, §2, §3

Which AUC ([1]; iv, i.v., 2 mg/kg) does the source give for `Cc1c(NC(=O)c2nc3c(n2C)CCN(C[C@H](C)O)C3)cccc1-c1cncc(-c2nc3cc(CN4CC[C@@H](C(=O)O)C4)cc(Cl)c3o2)c1C` [Example 12] here?
The AUC was 586 ng·h/mL.

What about the bioavailability ([1]; po) of the same molecule?
The bioavailability was 60%.

What about the AUC ([1]; po, p.o. (i.g.), 10 mg/kg) of the same molecule?
The AUC was 1760 ng·h/mL.

What about the Cmax ([1]; po, p.o. (i.g.), 10 mg/kg) of the same molecule?
Its Cmax is 442 ng/mL.

With `Cc1c(NC(=O)c2nc3c(n2C)CCN(C[C@H](C)O)C3)cncc1-c1cccc(NC(=O)c2nc3c(n2C)CCN(C(C)C)C3)c1Cl` [Example 24, (S)—N-(2-chloro-3-(5-(5-(2-hydroxypropyl)-1-methyl-4,5,6,7-tetrahydro-1H-imidazo[4,5-c]pyridine-2-carboxamido)-4-methylpyridin-3-yl)phenyl)-5-isopropyl-1-methyl-4,5,6,7-tetrahydro-1H-imidazo[4,5-c]pyridine-2-carboxamide] as the molecule, how does the LD50 at 14 days [2] read?
The LD50 at 14 days was greater than 1000 mg/kg.

And the “body weight and behavior compared with control group” value [3]?
The value was “no abnormal body weight or behavior”.

Which AUC ([1]; iv, i.v., 2 mg/kg) does the source give for `Cc1c(NC(=O)c2nc3c(s2)CNCC3)cccc1-c1cccc(-c2nc3cc(CN4CC[C@@H](C(=O)O)C4)cnc3o2)c1C` [Example 18, (R)-1-((2-(2,2′-dimethyl-3′-(4,5,6,7-tetrahydrothiazolo[5,4-c]pyridine-2-carboxamido)-[1,1′-biphenyl]-3-yl)oxazolo[5,4-b]pyridin-6-yl)methyl)pyrrolidine-3-carboxylic acid trifluoroacetate] here?
The AUC was 578 ng·h/mL.

And the half-life ([1]; iv, i.v., 2 mg/kg)?
Its half-life is 2.42 h.

And the bioavailability ([1]; po)?
Its bioavailability is 53%.

What about the AUC ([1]; po, p.o. (i.g.), 10 mg/kg) of the same molecule?
Its AUC is 1530 ng·h/mL.

What about the Cmax ([1]; po, p.o. (i.g.), 10 mg/kg) of the same molecule?
Its Cmax is 365 ng/mL.

Which results are given for `Cc1c(NC(=O)c2nc(CNCCO)cs2)cccc1-c1cccc(NC(=O)c2ccc(CNCCO)cn2)c1Cl` [Example 2]?
LD50 at 14 days [2]: > 1000 mg/kg; body weight and behavior compared with control group [3]: no abnormal body weight or behavior

With `Cc1c(NC(=O)c2nc3c(s2)CN(C)CC3)cncc1-c1cccc(NC(=O)c2nc3c(n2C)CCN(CC(C)O)C3)c1C` (stereo not drawn) [Example 6, N-(5-(3-(5-(2-hydroxypropyl)-1-methyl-4,5,6,7-tetrahydro-1H-imidazo[4,5-c]pyridine-2-carboxamido)-2-methylphenyl)-4-methylpyridin-3-yl)-5-methyl-4,5,6,7-tetrahydrothiazolo[5,4-c]pyridine-2-carboxamide] as the molecule, how does the AUC ([1]; iv, i.v., 2 mg/kg) read?
The AUC was 676 ng·h/mL.

What about the half-life ([1]; iv, i.v., 2 mg/kg) of the same molecule?
The half-life was 1.36 h.

What about the bioavailability ([1]; po) of the same molecule?
Its bioavailability is 62%.

What about the AUC ([1]; po, p.o. (i.g.), 10 mg/kg) of the same molecule?
The AUC was 2100 ng·h/mL.

And the Cmax ([1]; po, p.o. (i.g.), 10 mg/kg)?
Its Cmax is 389 ng/mL.

With `Cc1c(NC(=O)c2nc3c(n2C)CCN(C)C3)cccc1-c1cncc(-c2nc3cc(CN4CC[C@@H](C(=O)O)C4)cc(Cl)c3o2)c1C` [Example 13] as the molecule, how does the AUC ([1]; iv, i.v., 2 mg/kg) read?
Its AUC is 630 ng·h/mL.

What about the half-life ([1]; iv, i.v., 2 mg/kg) of the same molecule?
The half-life was 1.43 h.

And the bioavailability ([1]; po)?
The bioavailability was 54%.

What about the AUC ([1]; po, p.o. (i.g.), 10 mg/kg) of the same molecule?
Its AUC is 1700 ng·h/mL.

And the Cmax ([1]; po, p.o. (i.g.), 10 mg/kg)?
Its Cmax is 431 ng/mL.

And the LD50 at 14 days [2]?
Its LD50 at 14 days is greater than 1000 mg/kg.

What about the “body weight and behavior compared with control group” value [3] of the same molecule?
Its value is “no abnormal body weight or behavior”.

Which AUC ([1]; iv, i.v., 2 mg/kg) does the source give for `Cc1c(NC(=O)c2nc3c(s2)CN(C)CC3)cncc1-c1cccc(NC(=O)c2nc3c(n2C)CCN(C)C3)c1C` [Example 5, N-(5-(3-(1,5-dimethyl-4,5,6,7-tetrahydro-1H-imidazo[4,5-c]pyridine-2-carboxamido)-2-methylphenyl)-4-methylpyridin-3-yl)-5-methyl-4,5,6,7-tetrahydrothiazolo[5,4-c]pyridine-2-carboxamide] here?
The AUC was 612 ng·h/mL.

And the half-life ([1]; iv, i.v., 2 mg/kg)?
Its half-life is 2.5 h.

And the bioavailability ([1]; po)?
Its bioavailability is 68%.

And the AUC ([1]; po, p.o. (i.g.), 10 mg/kg)?
The AUC was 2080 ng·h/mL.

What about the Cmax ([1]; po, p.o. (i.g.), 10 mg/kg) of the same molecule?
Its Cmax is 432 ng/mL.

What does the source list for `Cc1c(NC(=O)c2nc3c(n2C)CCNC3)cccc1-c1cncc(-c2nc3cc(CN4CC[C@@H](C(=O)O)C4)cc(Cl)c3o2)c1C` [Example 19, (R)-1-(((7-chloro-2-(4-methyl-5-(2-methyl-3-(1-methyl-4,5,6,7-tetrahydro-1H-imidazole)[4,5-c]pyridine-2-carboxamido)phenyl)pyridin-3-yl)benzo[d]oxazol-5-yl)methyl)pyrrolidine-3-carboxylic acid]?
AUC ([1]; iv, i.v., 2 mg/kg): 560 ng·h/mL; half-life ([1]; iv, i.v., 2 mg/kg): 2.21 h; bioavailability ([1]; po): 65%; AUC ([1]; po, p.o. (i.g.), 10 mg/kg): 1820 ng·h/mL; Cmax ([1]; po, p.o. (i.g.), 10 mg/kg): 407 ng/mL; LD50 at 14 days [2]: > 1000 mg/kg; body weight and behavior compared with control group [3]: no abnormal body weight or behavior

With `Cc1c(NC(=O)c2nc3c(s2)CN(C)CC3)cccc1-c1cncc(-c2nc3cc(CN4CC[C@@H](C(=O)O)C4)cc(C#N)c3o2)c1C` [Example 25] as the molecule, how does the AUC ([1]; iv, i.v., 2 mg/kg) read?
Its AUC is 612 ng·h/mL.

What about the half-life ([1]; iv, i.v., 2 mg/kg) of the same molecule?
Its half-life is 2.35 h.

What about the bioavailability ([1]; po) of the same molecule?
The bioavailability was 60%.

What about the AUC ([1]; po, p.o. (i.g.), 10 mg/kg) of the same molecule?
Its AUC is 1840 ng·h/mL.

What about the Cmax ([1]; po, p.o. (i.g.), 10 mg/kg) of the same molecule?
Its Cmax is 435 ng/mL.

What does the source list for `Cc1c(NC(=O)c2nc(CNCCO)cn2C)cccc1-c1cccc(NC(=O)c2ccc(CNCCO)cn2)c1Cl` [Example 1, N-(2-chloro-3′-(4-(((2-hydroxyethyl)amino)methyl)-1-methyl-1H-imidazole-2-carboxamido)-2′-methyl-[1,1′-biphenyl]-3-yl)-5-(((2-hydroxyethyl)amino)methyl)picolinamide]?
AUC ([1]; iv, i.v., 2 mg/kg): 596 ng·h/mL; half-life ([1]; iv, i.v., 2 mg/kg): 2.05 h; bioavailability ([1]; po): 56%; AUC ([1]; po, p.o. (i.g.), 10 mg/kg): 1670 ng·h/mL; Cmax ([1]; po, p.o. (i.g.), 10 mg/kg): 415 ng/mL

What does the source list for `Cc1c(NC(=O)c2nc3c(s2)CN(C)CC3)cncc1-c1cccc(-c2nc3cc(CN4CC[C@@H](C(=O)O)C4)cc(Cl)c3o2)c1C` [Example 8, (R)-1-((7-chloro-2-(2-methyl-3-(4-methyl-5-(5-methyl-4,5,6,7-tetrahydrothiazolo[5,4-c]pyridine-2-carboxamido)pyridin-3-yl)phenyl)benzo[d]oxazol-5-yl)methyl)pyrrolidine-3-carboxylic acid]?
AUC ([1]; iv, i.v., 2 mg/kg): 601 ng·h/mL; half-life ([1]; iv, i.v., 2 mg/kg): 1.56 h; bioavailability ([1]; po): 55%; AUC ([1]; po, p.o. (i.g.), 10 mg/kg): 1650 ng·h/mL; Cmax ([1]; po, p.o. (i.g.), 10 mg/kg): 402 ng/mL

What does the source list for `Cc1c(NC(=O)c2nc3c(s2)CN(C[C@H](C)O)CC3)cccc1-c1cccc(-c2nc3cc(CN4CC[C@@H](C(=O)O)C4)cnc3o2)c1C` [Example 22, (R)-1-((2-(3′-(5-((S)-2-hydroxypropyl)-4,5,6,7-tetrahydrothiazolo[5,4-c]pyridine-2-carboxamido)-2,2′-dimethyl-[1,1′-biphenyl]-3-yl)oxazolo[5,4-b]pyridin-6-yl)methyl)pyrrolidine-3-carboxylic acid]?
AUC ([1]; iv, i.v., 2 mg/kg): 578 ng·h/mL; half-life ([1]; iv, i.v., 2 mg/kg): 1.46 h; bioavailability ([1]; po): 51%; AUC ([1]; po, p.o. (i.g.), 10 mg/kg): 1470 ng·h/mL; Cmax ([1]; po, p.o. (i.g.), 10 mg/kg): 488 ng/mL

What does the source list for `Cc1c(NC(=O)c2nc3c(n2C)CCN(C)C3)cncc1-c1cccc(-c2nc3cc(CN4CC[C@@H](C(=O)O)C4)cc(Cl)c3o2)c1C` [Example 21]?
LD50 at 14 days [2]: > 1000 mg/kg; body weight and behavior compared with control group [3]: no abnormal body weight or behavior

Which AUC ([1]; iv, i.v., 2 mg/kg) does the source give for `Cc1c(NC(=O)c2nc3c(n2C)CCN(CC(C)O)C3)cccc1-c1cccc(-c2nc3cc(CN4CC[C@@H](C(=O)O)C4)ncc3o2)c1C` (stereo partly drawn) [Example 29, (R)-1-((2-(3′-(5-(2-hydroxypropyl)-1-methyl-4,5,6,7-tetrahydro-1H-imidazo[4,5-c]pyridine-2-carboxamido)-2,2′-dimethyl-[1,1′-biphenyl]-3-yl)oxazolo[5,4-c]pyridin-6-yl)methyl)pyrrolidine-3-carboxylic acid] here?
The AUC was 617 ng·h/mL.

And the half-life ([1]; iv, i.v., 2 mg/kg)?
The half-life was 2.14 h.

And the bioavailability ([1]; po)?
Its bioavailability is 48%.

And the AUC ([1]; po, p.o. (i.g.), 10 mg/kg)?
The AUC was 1480 ng·h/mL.

What about the Cmax ([1]; po, p.o. (i.g.), 10 mg/kg) of the same molecule?
The Cmax was 405 ng/mL.

Which LD50 at 14 days [2] does the source give for `Cc1c(NC(=O)c2nc3c(n2C)CCN(C[C@H](C)O)C3)cncc1-c1cccc(NC(=O)c2nc3c(n2C)CCN(C[C@H](C)O)C3)c1Cl` [Example 26, N-(5-(2-chloro-3-(5-((S)-2-hydroxypropyl)-1-methyl-4,5,6,7-tetrahydro-1H-imidazo[4,5-c]pyridine-2-carboxamido)phenyl)-4-methylpyridin-3-yl)-5-((S)-2-hydroxypropyl)-1-methyl-4,5,6,7-tetrahydro-1H-imidazo[4,5-c]pyridine-2-carboxamide] here?
The LD50 at 14 days was greater than 1000 mg/kg.

And the “body weight and behavior compared with control group” value [3]?
The value was “no abnormal body weight or behavior”.
